Among the data in patent EP4342530A1, “SORTILIN MODULATORS” (Insusense ApS, priority 2022, dated 2024) are IC50 values, retold here.

pIC50: −log10 of the molar value.

This assay addresses T1, h-Sortilin (Homo sapiens, UniProt Q99523).
T1 sequence (Q99523 78-831): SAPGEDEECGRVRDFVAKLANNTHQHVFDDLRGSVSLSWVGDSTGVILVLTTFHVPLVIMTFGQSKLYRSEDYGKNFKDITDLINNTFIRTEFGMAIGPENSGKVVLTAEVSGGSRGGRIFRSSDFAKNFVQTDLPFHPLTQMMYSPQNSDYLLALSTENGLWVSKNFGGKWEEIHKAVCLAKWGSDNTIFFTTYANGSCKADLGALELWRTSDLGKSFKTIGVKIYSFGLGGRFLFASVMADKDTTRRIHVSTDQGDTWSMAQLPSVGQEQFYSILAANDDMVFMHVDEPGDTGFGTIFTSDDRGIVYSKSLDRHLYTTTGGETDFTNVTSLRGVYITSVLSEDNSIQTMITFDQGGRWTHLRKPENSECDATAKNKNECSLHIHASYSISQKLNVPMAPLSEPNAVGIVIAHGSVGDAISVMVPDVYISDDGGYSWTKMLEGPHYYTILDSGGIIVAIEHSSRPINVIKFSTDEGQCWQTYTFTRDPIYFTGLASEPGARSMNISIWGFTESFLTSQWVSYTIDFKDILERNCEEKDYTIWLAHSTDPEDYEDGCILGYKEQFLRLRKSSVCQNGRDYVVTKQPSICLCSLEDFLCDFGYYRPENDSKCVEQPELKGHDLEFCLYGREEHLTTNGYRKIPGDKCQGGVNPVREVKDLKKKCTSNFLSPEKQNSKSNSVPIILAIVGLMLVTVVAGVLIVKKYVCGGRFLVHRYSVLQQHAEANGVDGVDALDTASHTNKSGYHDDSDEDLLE
Briefly: Neurotensin scintillation proximity assay (displacement of [3H]-neurotensin binding). The settings on record: 150 nM 6his-Sortilin, 5 nM [3H]-Neurotensin; average of at least 2 determinations; read-out: IC50 [3H]Neurotensin SPA. As for the experimental part: The exemplified compounds of the invention were tested in a Neurotensin (NTS) scintillation proximity assay (SPA). NTS, which is a 13 amino acid neuropeptide, is a sortilin ligand. The IC50 is a measure of the amount of the compound required to inhibit the binding of NTS to sortilin by 50%. The skilled person will recognise that the lower the IC50 value, the less of the compound needed to achieve the desired effect, and as a result, the chances of undesirable off-target effects are reduced.
Compound affinity was determined by measuring the displacement of [3H]-neurotensin binding to h-Sortilin in SPA format. Total volume of 40 µl in 50 mM HEPES pH 7.4 assay buffer containing 100 mM NaCl, 2.0 mM CaCl2, 0.1% BSA and 0.1% Tween-20. Compound pre-incubation for 30 minutes at room temperature with 150 nM of 6his-Sortilin before 5 nM [3H]-Neurotensin and Ni chelate imaging beads (Perkin Elmer) were added, after 6 hours the plate was read on a ViewLux with 360 s exposure time. Dose-response evaluation of compounds was performed with 8 concentrations of drugs (covering 3 decades). IC50 values were calculated by nonlinear regression using the sigmoid concentration-response (variable slope) using CDD Vault software. All values reported are average of at least 2 determinations.
`CN1CCc2cc(CN[C@@H](CCC(C)(C)C)C(=O)O)ccc2C1=O` [Example 24, (2S)-5,5-dimethyl-2-{[(2-methyl-1-oxo-1,2,3,4-tetrahydroisoquinolin-6-yl)methyl]amino}hexanoic acid]: the pIC50 – broadly, the negative decadic logarithm of the IC50, by convention in mol/L – is 6.20.

On to `Cc1cc(CN[C@@H](CCC(C)(C)C)C(=O)O)cc2c1CCCO2` [Example 55], for which the pIC50 is 6.51.

For `Cc1cc(CN[C@@H](CCC(C)(C)C)C(=O)O)cc2c1CCC2` [Example 26, (2S)-5,5-dimethyl-2-{[(7-methyl-2,3-dihydro-1H-inden-5-yl)methyl]amino}hexanoic acid], the pIC50 was 6.28.

For `C[C@H](N[C@@H](CCC(C)(C)C)C(=O)O)c1ccc2c(c1)COCC2` [Example 69], the pIC50 is 6.23.

Consider `CC(C)(C)CC[C@H](NCc1cccc(N2CCCC2)c1)C(=O)O` [Example 77], for which the pIC50 is 6.46.

As to `CC(C)(C)CC[C@H](NCc1ccc2c(c1)CCC(=O)N2)C(=O)O` [Example 31, (2S)-5,5-dimethyl-2-{[(2-oxo-1,2,3,4-tetrahydroquinolin-6-yl)methyl]amino}hexanoic acid], the pIC50 is 6.05.

In the case of `CC(C)(C)CC[C@H](NCc1ccc2c(c1)OCC2)C(=O)O` [Example 62], the pIC50 was 6.37.

In the case of `CC(C)(C)CC[C@H](NCc1ccc2c(c1)NC(=O)CC2)C(=O)O` [Example 29, (2S)-5,5-dimethyl-2-{[(2-oxo-1,2,3,4-tetrahydroquinolin-7-yl)methyl]amino}hexanoic acid], the pIC50 is 6.54.

Consider `COc1cccc([C@H](CCO)N[C@@H](CCC(C)(C)C)C(=O)O)c1` [Example 41], for which the pIC50 was 6.12.

For the compound `COc1cccc([C@@H](CCO)N[C@@H](CCC(C)(C)C)C(=O)O)c1` [Example 42], the pIC50 is 6.23.

Take `CC(C)(C)CCC(N[C@@H](CCO)c1ccccc1)C(=O)O` (mixture of isomers) [Example 39, 2-{[(1S)-3-hydroxy-1-phenylpropyl]amino}-5,5-dimethylhexanoic acid]: the pIC50 is 6.39.

`CC(C)(C)CC[C@H](NCc1ccc2c(c1)CCO2)C(=O)O` [Example 66]: the pIC50 is 6.15.

Regarding `CC(C)(C)CC[C@H](NCc1cnc2c(c1)OCCO2)C(=O)O` [Example 60], the pIC50 was 6.09.

As to `CC(C)(C)CC[C@H](NCc1cccc2c1CCOC2)C(=O)O` [Example 63], the pIC50 was 6.19.

On to `CC(C)(C)CC[C@H](NCc1ccc2c(c1)CCNC2)C(=O)O` [Example 15, (S)-5,5-dimethyl-2-(((1,2,3,4-tetrahydroisoquinolin-6-yl)methyl)amino)hexanoic acid], for which the pIC50 is 6.05.

Consider `CN1CCc2ccc(CN[C@@H](CCC(C)(C)C)C(=O)O)cc2C1` [Example 20, (2S)-5,5-dimethyl-2-{[(2-methyl-1,2,3,4-tetrahydroisoquinolin-7-yl)methyl]amino}hexanoic acid], for which the pIC50 is 6.33.

With `CC(C)(C)CC[C@H](NCc1cccc(-n2cncn2)c1)C(=O)O` [Example 35, (2S)-5,5-dimethyl-2-({[3-(1H-1,2,4-triazol-1-yl)phenyl]methyl}amino)hexanoic acid], the pIC50 was 6.02.

`CN1C(=O)CCc2cc(CN[C@@H](CCC(C)(C)C)C(=O)O)ccc21` [Example 27, (2S)-5,5-dimethyl-2-{[(1-methyl-2-oxo-1,2,3,4-tetrahydroquinolin-6-yl)methyl]amino}hexanoic acid]: the pIC50 is 6.12.

Take `C[C@H](N[C@@H](CCC(C)(C)C)C(=O)O)c1ccc2c(c1)CCCC2` [Example 12]: the pIC50 is 6.21.

`CC(C)(C)CC[C@H](NCc1cccc2c1COCC2)C(=O)O` [Example 67]: the pIC50 was 6.30.

On to `CC(C)(C)CC[C@H](NCc1cnc2c(c1)CCCO2)C(=O)O` [Example 53], for which the pIC50 is 6.24.

Turning to `C[C@@H](N[C@@H](CCC(C)(C)C)C(=O)O)c1ccc2c(c1)COCC2` [Example 64], the pIC50 is 6.38.

For the compound `C[C@H](N[C@@H](CCC(C)(C)C)C(=O)O)c1cccc2c1OCCO2` [Example 73], the pIC50 is 6.19.

In the case of `CN1CCc2ccc(CN[C@@H](CCC(C)(C)C)C(=O)O)cc2C1=O` [Example 23, (2S)-5,5-dimethyl-2-{[(2-methyl-1-oxo-1,2,3,4-tetrahydroisoquinolin-7-yl)methyl]amino}hexanoic acid], the negative logarithm of the IC50 (pIC50) is 6.37.

As to `CC(C)(C)CC[C@H](NCc1cccc2c1COC2)C(=O)O` [Example 65], the pIC50 is 6.21.

Turning to `CC(C)(C)CC[C@H](N[C@H](CCO)c1ccccc1)C(=O)O` [Example 40, (2S)-2-{[(1R)-3-hydroxy-1-phenylpropyl]amino}-5,5-dimethylhexanoic acid], the pIC50 was 5.19.

Turning to `C[C@H](N[C@@H](CCC(C)(C)C)C(=O)O)c1ccc2c(c1)OCCC2` [Example 57], the pIC50 is 6.52.

As to `CC(C)(C)CC[C@H](NCc1ccc(Oc2ccccc2)cc1)C(=O)O` [Example 36], the pIC50 was 6.28.

With `CC(C)(C)CC[C@H](NCc1ccc2c(c1)N(C(=O)OC(C)(C)C)CCC2)C(=O)O` [Example 32, (2S)-2-[({1-[(tert-butoxy)carbonyl]-1,2,3,4-tetrahydroquinolin-7-yl}methyl)amino]-5,5-dimethylhexanoic acid], the pIC50 is 6.89.

As for `CN(C)c1cccc(CN[C@@H](CCC(C)(C)C)C(=O)O)c1` [Example 37, (2S)-2-({[3-(dimethylamino)phenyl]methyl}amino)-5,5-dimethylhexanoic acid], the pIC50 is 6.24.

Take `C[C@@H](N[C@@H](CCC(C)(C)C)C(=O)O)c1cccc2c1OCCO2` [Example 75]: the pIC50 is 5.91.

Turning to `CC(C)(C)CC[C@H](NCc1cccc2c1CCC2)C(=O)O` [Example 74], the pIC50 was 6.07.
